Measured values as given in patent US20240109864A1, “SUBSTITUTED PYRAZOLYL PIPERIDINE CARBOXYLIC ACIDS” (BAYER AKTIENGESELLSCHAFT, priority 2020, published 2024).
pEC50: −log10 of the molar value. Where a name gives a salt, the structure may show the parent alone.

Biological target: T1, recombinant guanylate cyclase reporter cell line (Rattus norvegicus, UniProt P20595)
T1 construct: expressed in transfected cells
T1 sequence (P20595 1-619): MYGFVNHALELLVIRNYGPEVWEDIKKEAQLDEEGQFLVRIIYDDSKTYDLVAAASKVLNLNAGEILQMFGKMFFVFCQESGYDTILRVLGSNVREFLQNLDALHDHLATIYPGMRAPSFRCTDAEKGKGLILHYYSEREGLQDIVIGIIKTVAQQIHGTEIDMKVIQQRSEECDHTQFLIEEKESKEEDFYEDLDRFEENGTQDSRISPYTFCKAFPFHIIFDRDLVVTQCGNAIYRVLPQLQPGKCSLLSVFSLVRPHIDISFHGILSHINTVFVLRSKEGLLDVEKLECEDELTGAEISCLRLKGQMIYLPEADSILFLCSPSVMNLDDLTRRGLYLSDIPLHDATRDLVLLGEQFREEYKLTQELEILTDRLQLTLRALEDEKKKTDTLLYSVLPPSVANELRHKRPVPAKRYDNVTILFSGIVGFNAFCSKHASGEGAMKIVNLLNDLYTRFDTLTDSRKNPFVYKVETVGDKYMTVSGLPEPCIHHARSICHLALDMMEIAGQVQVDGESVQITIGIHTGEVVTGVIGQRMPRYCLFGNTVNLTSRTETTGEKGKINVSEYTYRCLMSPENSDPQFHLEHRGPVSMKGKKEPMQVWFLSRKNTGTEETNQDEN
T1 sequence (P19686 1-690 partner): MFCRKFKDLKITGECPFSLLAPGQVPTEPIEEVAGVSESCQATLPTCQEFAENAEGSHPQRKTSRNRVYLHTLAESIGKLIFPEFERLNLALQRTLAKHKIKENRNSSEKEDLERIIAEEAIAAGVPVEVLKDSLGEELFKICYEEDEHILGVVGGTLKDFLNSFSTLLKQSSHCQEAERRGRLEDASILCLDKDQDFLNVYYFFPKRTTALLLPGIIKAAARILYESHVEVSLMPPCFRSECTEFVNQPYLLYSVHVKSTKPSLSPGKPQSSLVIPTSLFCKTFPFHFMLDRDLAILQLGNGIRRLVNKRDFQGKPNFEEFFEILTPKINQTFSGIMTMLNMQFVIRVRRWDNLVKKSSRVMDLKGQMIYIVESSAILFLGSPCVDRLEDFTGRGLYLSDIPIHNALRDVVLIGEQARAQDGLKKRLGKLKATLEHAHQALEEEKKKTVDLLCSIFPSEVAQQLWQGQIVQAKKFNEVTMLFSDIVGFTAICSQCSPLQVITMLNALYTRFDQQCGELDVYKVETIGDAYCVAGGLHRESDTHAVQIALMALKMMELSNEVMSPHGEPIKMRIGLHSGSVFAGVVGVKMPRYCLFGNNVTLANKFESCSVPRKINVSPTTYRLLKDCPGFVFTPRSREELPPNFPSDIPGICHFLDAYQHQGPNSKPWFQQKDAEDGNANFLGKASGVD
Assay: Effect on a recombinant guanylate cyclase reporter cell line
Assay type: cell-based
Details: in some cases mean values from individual determinations; for MEC: MEC = minimum effective concentration; for pEC50: half maximal effective concentration
Procedure: The cellular activity of the compounds according to the invention was determined using a recombinant guanylate cyclase reporter cell line, as described in F. Wunder et al., Anal. Biochem. 339, 104-112 (2005).

Row | SMILES | MEC | pEC50 | MEC (hydrochloride)
1 | O=C(O)c1cnn(C2CCCN(c3cc(Cl)ccc3-c3ccc(N4CCN(CC5CC5(F)F)CC4)cc3)C2)c1C(F)(F)F (mixture of isomers) [Example 31, 1-[1-[5-Chloro-2-[4-[4-[[2,2-difluorocyclopropyl]methyl]piperazin-1-yl]phenyl]phenyl]-3-piperidyl]-5-(trifluoromethyl)pyrazole-4-carboxylic acid hydrochloride] | 1.0 nM | 8.42 | 
2 | CN1CCN(c2ccc(-c3ccc(Cl)cc3N3CCCC(n4ncc(C(=O)O)c4C(F)(F)F)C3)cc2)CC1 (single isomer, unassigned) [Example 1, 1-[1-[5-Chloro-2-[4-(4-methylpiperazin-1-yl)phenyl]phenyl]-3-piperidyl]-5-(trifluoromethyl)pyrazole-4-carboxylic acid] | 10.0 nM | 7.32 | 
3 | CN1CCN(c2ccc(-c3ccc(Cl)cc3N3CCCC(n4ncc(C(=O)O)c4C(F)(F)F)C3)cc2)CC1 (single isomer, unassigned) [Example 2, 1-{1-[4-Chloro-4′-(4-methylpiperazin-1-yl)[1,1′-biphenyl]-2-yl]piperidin-3-yl}-5-(trifluoromethyl)-1H-pyrazole-4-carboxylic acid hydrochloride] |  | 7.54 | 5.5 nM
4 | CCN1CCN(c2ccc(-c3ccc(Cl)cc3N3CCCC(n4ncc(C(=O)O)c4C(F)(F)F)C3)cc2)CC1 (single isomer, unassigned) [Example 3, 1-{1-[4-Chloro-4′-(4-ethylpiperazin-1-yl)[1,1′-biphenyl]-2-yl]piperidin-3-yl}-5-(trifluoromethyl)-1H-pyrazole-4-carboxylic acid hydrochloride] | 10.0 nM | 7.18 | 
5 | CCCN1CCN(c2ccc(-c3ccc(Cl)cc3N3CCCC(n4ncc(C(=O)O)c4C(F)(F)F)C3)cc2)CC1 (single isomer, unassigned) [Example 4, 1-[1-[5-Chloro-2-[4-(4-propylpiperazin-1-yl)phenyl]phenyl]-3-piperidyl]-5-(trifluoromethyl)pyrazole-4-carboxylic acid hydrochloride] | 3.0 nM | 7.80 | 
6 | N#CCCN1CCN(c2ccc(-c3ccc(Cl)cc3N3CCCC(n4ncc(C(=O)O)c4C(F)(F)F)C3)cc2)CC1 (single isomer, unassigned) [Example 5, 1-[1-[5-Chloro-2-[4-[4-(2-cyanoethyl)piperazin-1-yl]phenyl]phenyl]-3-piperidyl]-5-(trifluoromethyl)pyrazole-4-carboxylic acid] | 1.0 nM | 8.32 | 
7 | CC(C)N1CCN(c2ccc(-c3ccc(Cl)cc3N3CCCC(n4ncc(C(=O)O)c4C(F)(F)F)C3)cc2)CC1 (single isomer, unassigned) [Example 6, 1-[1-[5-Chloro-2-[4-(4-isopropylpiperazin-1-yl)phenyl]phenyl]-3-piperidyl]-5-(trifluoromethyl)pyrazole-4-carboxylic acid hydrochloride] | 10.0 nM | 7.06 | 
8 | O=C(O)c1cnn(C2CCCN(c3cc(Cl)ccc3-c3ccc(N4CCN(C[C@@H]5C[C@@H]5F)CC4)cc3)C2)c1C(F)(F)F (single isomer, unassigned) [Example 8, hydrochloride] |  | 7.28 | 10.0 nM
9 | O=C(O)c1cnn(C2CCCN(c3cc(Cl)ccc3-c3ccc(N4CCN(CC5(F)CC5)CC4)cc3)C2)c1C(F)(F)F (single isomer, unassigned) [Example 9, 1-[1-[5-Chloro-2-[4-[4-[(1-fluorocyclopropyl)methyl]piperazin-1-yl]phenyl]phenyl]-3-piperidyl]-5-(trifluoromethyl)pyrazole-4-carboxylic acid hydrochloride] | 0.3 nM | 8.96 | 
10 | CC(C)(F)CN1CCN(c2ccc(-c3ccc(Cl)cc3N3CCCC(n4ncc(C(=O)O)c4C(F)(F)F)C3)cc2)CC1.Cl (single isomer, unassigned) [Example 10, 1-[1-[5-Chloro-2-[4-[4-(2-fluoro-2-methyl-propyl)piperazin-1-yl]phenyl]phenyl]-3-piperidyl]-5-(trifluoromethyl)pyrazole-4-carboxylic acid hydrochloride] | 3.0 nM | 7.61 | 
11 | CC(F)(F)CN1CCN(c2ccc(-c3ccc(Cl)cc3N3CCCC(n4ncc(C(=O)O)c4C(F)(F)F)C3)cc2)CC1 (single isomer, unassigned) [Example 11, 1-[1-[5-Chloro-2-[4-[4-(2,2-difluoropropyl)piperazin-1-yl]phenyl]phenyl]-3-piperidyl]-5-(trifluoromethyl)pyrazole-4-carboxylic acid hydrochloride] | 0.3 nM | 8.85 | 
12 | O=C(O)c1cnn(C2CCCN(c3cc(Cl)ccc3-c3ccc(N4CCN(CC(F)F)CC4)cc3)C2)c1C(F)(F)F (single isomer, unassigned) [Example 12, 1-[1-[5-Chloro-2-[4-[4-(2,2-difluoroethyl)piperazin-1-yl]phenyl]phenyl]-3-piperidyl]-5-(trifluoromethyl)pyrazole-4-carboxylic acid hydrochloride] |  | 8.34 | 1.0 nM
13 | O=C(O)c1cnn(C2CCCN(c3cc(Cl)ccc3-c3ccc(N4CCN(CC(F)F)CC4)cc3)C2)c1C(F)(F)F (single isomer, unassigned) [Example 13, 1-[1-[5-Chloro-2-[4-[4-(2,2-difluoroethyl)piperazin-1-yl]phenyl]phenyl]-3-piperidyl]-5-(trifluoromethyl)pyrazole-4-carboxylic acid] | 3.0 nM | 7.27 | 
14 | O=C(O)c1cnn(C2CCCN(c3cc(Cl)ccc3-c3ccc(N4CCN(CCC(F)F)CC4)cc3)C2)c1C(F)(F)F (single isomer, unassigned) [Example 14, 1-[1-[5-Chloro-2-[4-[4-(3,3-difluoropropyl)piperazin-1-yl]phenyl]phenyl]-3-piperidyl]-5-(trifluoromethyl)pyrazole-4-carboxylic acid hydrochloride] | 0.3 nM | 8.51 | 
15 | O=C(O)c1cnn(C2CCCN(c3cc(Cl)ccc3-c3ccc(N4CCN(CC(F)(F)F)CC4)cc3)C2)c1C(F)(F)F (single isomer, unassigned) [Example 15, 1-[1-[5-Chloro-2-[4-[4-(2,2,2-trifluoroethyl)piperazin-1-yl]phenyl]phenyl]-3-piperidyl]-5-(trifluoromethyl)pyrazole-4-carboxylic acid] | 0.6 nM |  | 
16 | O=C(O)c1cnn(C2CCCN(c3cc(Cl)ccc3-c3ccc(N4CCN(CC(F)(F)F)CC4)cc3)C2)c1C(F)(F)F (single isomer, unassigned) [Example 16, 1-[1-[5-Chloro-2-[4-[4-(2,2,2-trifluoroethyl)piperazin-1-yl]phenyl]phenyl]-3-piperidyl]-5-(trifluoromethyl)pyrazole-4-carboxylic acid] | 3.0 nM | 7.84 | 
17 | O=C(O)c1cnn(C2CCCN(c3cc(Cl)ccc3-c3ccc(N4CCN(CCC(F)(F)F)CC4)cc3)C2)c1C(F)(F)F (single isomer, unassigned) [Example 17, 1-[1-[5-Chloro-2-[4-[4-(3,3,3-trifluoropropyl)piperazin-1-yl]phenyl]phenyl]-3-piperidyl]-5-(trifluoromethyl)pyrazole-4-carboxylic acid hydrochloride] | <0.3 nM | 8.85 | 
18 | CC(C)(C)CN1CCN(c2ccc(-c3ccc(Cl)cc3N3CCCC(n4ncc(C(=O)O)c4C(F)(F)F)C3)cc2)CC1 (single isomer, unassigned) [Example 18, 1-[1-[5-Chloro-2-[4-[4-(2,2-dimethylpropyl)piperazin-1-yl]phenyl]phenyl]-3-piperidyl]-5-(trifluoromethyl)pyrazole-4-carboxylic acid hydrochloride] | 10.0 nM | 7.20 | 
